Measurements taken from ChEMBL document CHEMBL6078680, “Improving the Stability and Anti-Infective Activity of Sea Turtle AMPs Using Multiple Structural Modification Strategies” (J Med Chem, 2024).
Calls of active or inactive are those of the source. No cut-off for these calls is given here. Starred links: 1 amine or outer side, 2 acyl side, 3 side chain; linkers in the order of their positions; H or OH if unused. Positions of bridges follow the written chain, without caps; N, C: chain ends. Non-standard residues stand in square brackets, D forms with d. Residues, ends and D or L forms follow the SMILES beside them. X1 = C[C@@](CCCCC=[*:3])(N[*:1])C(=O)[*:2]; hArg = N=C(N)NCCCC[C@H](N)C(=O)O

Experiments:
[1] = test system: Staphylococcus epidermidis; assay: Antimicrobial activity against Staphylococcus epidermidis assessed as reduction in microbial growth incubated for 18 hrs by broth microdilution method; format: functional
Acinetobacter baumannii = assay: Antimicrobial activity against Acinetobacter baumannii ATCC19606 assessed as reduction in microbial growth incubated for 18 hrs by broth microdilution method; format: functional
Enterococcus faecium = assay: Antimicrobial activity against Enterococcus faecium 34 assessed as reduction in microbial growth incubated for 18 hrs by broth microdilution method; format: functional
Pseudomonas aeruginosa = assay: Antimicrobial activity against Pseudomonas aeruginosa CMCC10104 assessed as reduction in microbial growth incubated for 18 hrs by broth microdilution method; format: functional
Staphylococcus aureus [2] = assay: Antimicrobial activity against Staphylococcus aureus CMCC 26003 assessed as reduction in microbial growth incubated for 18 hrs by broth microdilution method; format: functional
Escherichia coli [3] = assay: Antimicrobial activity against Escherichia coli CMCC44102 assessed as reduction in microbial growth incubated for 18 hrs by broth microdilution method; format: functional
Clostridium perfringens = assay: Antimicrobial activity against Clostridium perfringens ATCC 13124 assessed as reduction in microbial growth incubated for 18 hrs by broth microdilution method; format: functional
Escherichia coli [4] = assay: Antimicrobial activity against Escherichia coli ATCC 25922 assessed as reduction in microbial growth incubated for 18 hrs by broth microdilution method; format: functional
Enterococcus faecalis = assay: Antimicrobial activity against Enterococcus faecalis ATCC 29217 assessed as reduction in microbial growth incubated for 18 hrs by broth microdilution method; format: functional
Staphylococcus aureus [5] = assay: Antimicrobial activity against Staphylococcus aureus ATCC 43300 assessed as reduction in microbial growth incubated for 18 hrs by broth microdilution method; format: functional
Staphylococcus aureus [6] = assay: Antimicrobial activity against Staphylococcus aureus 08032706 assessed as reduction in microbial growth incubated for 18 hrs by broth microdilution method; format: functional
Staphylococcus aureus [7] = assay: Antimicrobial activity against Staphylococcus aureus CMCC 26003 at 5 times MIC by time kill assay; format: functional, organism-based; conditions: time 180.0 min
Salmonella enteritidis = assay: Antimicrobial activity against Salmonella enterica subsp. enterica serovar Enteritidis ATCC 14028 assessed as reduction in microbial growth incubated for 18 hrs by broth microdilution method; format: functional
Peritoneal macrophage [8] = assay: Antiinflammatory activity in mouse Peritoneal macrophage cells assessed as inhibition of LPS-induced IL-6 production at 20 microg/ml incubated for 6 hrs by ELISA analysis; format: functional, cell-based; conditions: dose 20.0 µg/ml
[9] = Hemolytic activity at human Erythrocyte assessed as hemolysis at 100 microg/ml; format: toxicity, cell-based; conditions: erythrocytes, at 100 µg/mL, read-out: Activity
Peritoneal macrophage [10] = assay: Antiinflammatory activity in mouse Peritoneal macrophage cells assessed as inhibition of LPS-induced TNF-alpha production at 20 microg/ml incubated for 6 hrs by ELISA analysis; format: functional, cell-based; conditions: dose 20.0 µg/ml
Peritoneal macrophage [11] = assay: Antiinflammatory activity in mouse Peritoneal macrophage cells assessed as inhibition of LPS-induced IL-6 production my measuring fold change at 20 microg/ml incubated for 6 hrs by ELISA analysis; format: functional; conditions: dose 20 µg/ml
Staphylococcus aureus [12] = assay: Antimicrobial activity against Staphylococcus aureus CMCC 26003 at 5 times MIC measured at 180 mins; format: functional, organism-based
HaCaT = assay: Cytotoxicity against human HaCaT cells assessed as survival rate at 100 microg/ml; format: functional; conditions: read-out: Survival
Escherichia coli [13] = assay: Antimicrobial activity against Escherichia coli ATCC 25922 measured at 8 hrs in presence of mouse serum; format: functional, organism-based
Staphylococcus aureus [14] = assay: Antimicrobial activity against Staphylococcus aureus CMCC 26003 measured at 8 hrs in presence of mouse serum; format: functional, organism-based
Peritoneal macrophage [15] = assay: Cytotoxicity against mouse Peritoneal macrophage cells assessed as survival rate at 100 microg/ml; format: functional; conditions: read-out: Survival
Trypsin = Trypsin (Homo sapiens, UniProt P07477+P07478+P35030); assay: Stability of compound assessed as trypsin (unknown origin) mediated drug degradation […] measured after 24 hrs by RP-HPLC analysis; format: ADME, protein assay; conditions: read-out: Activity

CC1(C)S[C@@H]2[C@H](NC(=O)[C@H](N)c3ccccc3)C(=O)N2[C@H]1C(=O)O [AMPICILLIN]
MIC [1]: 2.34 µg/mL | MIC (Acinetobacter baumannii): > 100 µg/mL | MIC (Enterococcus faecium): < 0.78 µg/mL | MIC (Pseudomonas aeruginosa): > 100 µg/mL | MIC (Staphylococcus aureus [2]): < 0.78 µg/mL | MIC (Escherichia coli [3]): 2.34 µg/mL | MIC (Clostridium perfringens): 2.34 µg/mL | MIC (Escherichia coli [4]): 2.34 µg/mL | MIC (Enterococcus faecalis): < 0.78 µg/mL | MIC (Staphylococcus aureus [5]): 9.38 µg/mL | MIC (Staphylococcus aureus [6]): < 0.78 µg/mL | AC30 (Staphylococcus aureus [7]): Active | MIC (Salmonella enteritidis): 1.17 µg/mL

CC[C@H](C)[C@H](NC(=O)[C@H](CCCNC(=N)N)NC(=O)[C@H](CO)NC(=O)[C@H](Cc1c[nH]cn1)NC(=O)[C@H](CCCNC(=N)N)NC(=O)[C@H](CC(C)C)NC(=O)[C@@H](NC(=O)[C@H](CCCNC(=N)N)NC(=O)CNC(=O)[C@H](CC(C)C)NC(=O)[C@H](CCC(N)=O)NC(=O)[C@H](CCCCN)NC(=O)[C@]1(C)CCCC/C=C\CCCC[C@](C)(N)C(=O)N[C@@H](CCCCN)C(=O)N[C@@H](CCCCN)C(=O)N[C@@H](C(C)C)C(=O)N1)C(C)C)C(=O)N[C@H](C(=O)N[C@H](C(=O)NCC(=O)NCC(=O)N[C@@H](CCCNC(=N)N)C(=O)N[C@@H](CCSC)C(=O)N[C@@H](CCCNC(=N)N)C(=O)N[C@@H](Cc1ccccc1)C(=O)O)C(C)C)[C@@H](C)O (H-[X1]KKV[X1]KQLGRVLRHSRITVGGRMRF-OH; staple (Z) 1-5)
Activity (Peritoneal macrophage [8]): Active | hemolysis at 100 microg/ml [9]: < 5% | Activity (Peritoneal macrophage [10]): Active | fold change (FC) (Peritoneal macrophage [11]): 2 | Activity (Staphylococcus aureus [12]): inactive

CC[C@H](C)[C@@H]1NC(=O)[C@H](CCCNC(=N)N)NC(=O)[C@H](CO)NC(=O)[C@@H](NC(=O)[C@H](Cc2c[nH]cn2)NC(=O)[C@H](CCCNC(=N)N)NC(=O)[C@H](CC(C)C)NC(=O)[C@@H](NC(=O)[C@H](CCCNC(=N)N)NC(=O)CNC(=O)[C@H](CC(C)C)NC(=O)[C@H](CCC(N)=O)NC(=O)[C@H](CCCCN)NC(=O)[C@H](CCCNC(=N)N)NC(=O)[C@@H](NC(=O)[C@H](CCCCN)NC(=O)[C@H](CCCCN)NC(=O)[C@@H](N)Cc2ccccc2)C(C)C)C(C)C)CSSC[C@@H](C(=O)O)NC(=O)[C@H](Cc2ccccc2)NC(=O)[C@H](CCCNC(=N)N)NC(=O)[C@H](CCSC)NC(=O)[C@H](CCCNC(=N)N)NC(=O)CNC(=O)CNC(=O)[C@H](C(C)C)NC(=O)[C@H]([C@@H](C)O)NC1=O (H-FKKVRKQLGRVLRHCSRITVGGRMRFC-OH; disulfide 15-27)
Activity (Peritoneal macrophage [8]): Active | hemolysis at 100 microg/ml [9]: < 5% | Activity (Peritoneal macrophage [10]): Active | viability at 100 µg/mL (HaCaT): > 80% | Activity (Escherichia coli [13]): inactive | Activity (Staphylococcus aureus [12]): inactive | Activity (Staphylococcus aureus [14]): inactive | viability at 100 µg/mL (Peritoneal macrophage [15]): > 80%

CC[C@H](C)[C@H](NC(=O)[C@H](CCCCNC(=N)N)NC(=O)[C@H](CO)NC(=O)[C@H](Cc1c[nH]cn1)NC(=O)[C@H](CCCCNC(=N)N)NC(=O)[C@H](CC(C)C)NC(=O)[C@@H](NC(=O)[C@H](CCCCNC(=N)N)NC(=O)CNC(=O)[C@H](CC(C)C)NC(=O)[C@H](CCC(N)=O)NC(=O)[C@H](CCCCNC(=N)N)NC(=O)[C@H](CCCCNC(=N)N)NC(=O)[C@@H](NC(=O)[C@H](CCCCNC(=N)N)NC(=O)[C@H](CCCCNC(=N)N)NC(=O)[C@@H](N)Cc1ccccc1)C(C)C)C(C)C)C(=O)N[C@H](C(=O)N[C@H](C(=O)NCC(=O)NCC(=O)N[C@@H](CCCCNC(=N)N)C(=O)N[C@@H](CCSC)C(=O)N[C@@H](CCCCNC(=N)N)C(=O)N[C@@H](Cc1ccccc1)C(=O)O)C(C)C)[C@@H](C)O (H-F[hArg][hArg]V[hArg][hArg]QLG[hArg]VL[hArg]HS[hArg]ITVGG[hArg]M[hArg]F-OH)
Activity (Peritoneal macrophage [8]): Active | metabolised at 24 h (Trypsin): ~20% | hemolysis at 100 microg/ml [9]: < 5% | Activity (Peritoneal macrophage [10]): Active | Activity (Staphylococcus aureus [12]): inactive
